From BindingDB's records for patent US10624871 (The University of Hong Kong, 2020) come the findings set out here.

Molecules are shown by their SMILES.

Assay [1] has as its target T1, Metallo-beta-lactamase type 2 [29-270] (Klebsiella pneumoniae, UniProt C7C422).
T1 construct: 29-270
The assay can be described thus: Enzyme Inhibition Assay. Here is the method:
(§1) Freshly prepared Zn2-NDM-1 (50 nM) or Zn2-VIM-2 were first incubated with various concentrations of Bi(III) compounds for 1 h at 25° C. The assay was performed in a 1 cm quartz cuvette using the kinetic mode of Varian Cary 50 UV-visible spectrophotometer at 25° C. The final assay buffer contains 50 mM HEPES/Na pH 7.0, 100 mM NaCl and 100 μM MER. The decrease in absorbance at 300 nm due to ring-opening of MER was monitored every second for a duration of 10 mins until the reaction was completed. The initial rate were extracted and calculated from each reaction curves.

The target in assay [2] is T2, Metallo-beta-lactamase VIM-2 [21-266] (Klebsiella pneumoniae, UniProt Q3Y6Q3).
T2 construct: 21-266
The assay can be described thus: Enzyme Inhibition Assay. The procedure: as §1

T1 sequence (C7C422 29-270): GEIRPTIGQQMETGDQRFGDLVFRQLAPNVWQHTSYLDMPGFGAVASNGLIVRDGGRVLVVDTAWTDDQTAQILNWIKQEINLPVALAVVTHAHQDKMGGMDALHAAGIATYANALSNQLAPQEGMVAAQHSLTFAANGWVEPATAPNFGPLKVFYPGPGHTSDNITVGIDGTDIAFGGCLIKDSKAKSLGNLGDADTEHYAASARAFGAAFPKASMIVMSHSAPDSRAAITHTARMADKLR

With `CC(=O)N[C@@H](CS)C(=O)O` [US10624871, Compound 21], it took 17.7 µM to reach half-maximal inhibition in assay [1] (IC50).

For the molecule `O=C(O)C[C@@](O)(CC(O)O)C(=O)O` [US10624871, Compound 10], the IC50 – broadly, the concentration that gives 50% inhibition – was 44.5 µM in assay [2] and 5.83 µM in assay [1].

In the case of `[Bi+3]` [US10624871, Compound Bi(NO3)3], the figures for the half-maximal inhibitory concentration (IC50) in assay [2] and in assay [1] were 2.45 µM and 1.89 µM, respectively.

For the molecule `C[C@H](CS)C(=O)N1CCC[C@H]1C(=O)O` [US10624871, Compound 15], in assay [2], the midpoint of inhibition, the IC50, lay at 6.17 µM.
